Measured values reported in patent US20140142113A1 (priority 2012, published 2014).

Tests used:
hA2B adenosine receptor = biological target: T1, hA2B adenosine receptor (Homo sapiens, UniProt P29275); experiment: Adenosine receptor selectivity, hA2B; type: binding; conditions: read-out: hA2B IC50 ± SEM
T1 sequence (P29275 1-332): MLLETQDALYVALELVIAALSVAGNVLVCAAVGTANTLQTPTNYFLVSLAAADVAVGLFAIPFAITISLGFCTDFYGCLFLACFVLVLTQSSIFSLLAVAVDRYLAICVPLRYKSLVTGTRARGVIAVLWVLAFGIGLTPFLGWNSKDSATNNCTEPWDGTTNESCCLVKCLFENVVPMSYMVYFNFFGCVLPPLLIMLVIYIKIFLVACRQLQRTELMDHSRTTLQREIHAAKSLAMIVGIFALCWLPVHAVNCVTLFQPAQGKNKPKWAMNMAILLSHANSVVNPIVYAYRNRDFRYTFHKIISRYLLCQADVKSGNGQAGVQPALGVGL
Text: (§1) The selectivity of these substances at various adenosine receptors is illustrated as follows: […]

rA2A adenosine receptor = rA2A adenosine receptor (Rattus norvegicus, UniProt P30543); experiment: Adenosine receptor selectivity, rA2A; type: binding; conditions: read-out: rA2A Ki ± SEM
Text: as §1

hA3 adenosine receptor = biological target: T2, hA3 adenosine receptor (Homo sapiens, UniProt P0DMS8); experiment: Adenosine receptor selectivity, hA3; type: binding; conditions: read-out: hA3 Ki ± SEM
T2 sequence (P0DMS8 1-318): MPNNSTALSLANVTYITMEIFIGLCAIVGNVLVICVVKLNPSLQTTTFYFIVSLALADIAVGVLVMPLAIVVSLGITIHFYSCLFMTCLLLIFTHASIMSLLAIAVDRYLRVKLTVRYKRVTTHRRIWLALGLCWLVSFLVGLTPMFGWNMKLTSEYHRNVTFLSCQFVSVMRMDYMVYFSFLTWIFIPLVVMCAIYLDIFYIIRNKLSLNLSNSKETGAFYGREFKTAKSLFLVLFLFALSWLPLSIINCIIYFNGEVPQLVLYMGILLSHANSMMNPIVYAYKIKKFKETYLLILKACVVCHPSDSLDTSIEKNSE
Text: as §1

rA1 adenosine receptor = biological target: T3, rA1 adenosine receptor (Rattus norvegicus, UniProt P25099); experiment: Adenosine receptor selectivity, rA1; type: binding; conditions: read-out: rA1 Ki ± SEM
T3 sequence (P25099 1-326): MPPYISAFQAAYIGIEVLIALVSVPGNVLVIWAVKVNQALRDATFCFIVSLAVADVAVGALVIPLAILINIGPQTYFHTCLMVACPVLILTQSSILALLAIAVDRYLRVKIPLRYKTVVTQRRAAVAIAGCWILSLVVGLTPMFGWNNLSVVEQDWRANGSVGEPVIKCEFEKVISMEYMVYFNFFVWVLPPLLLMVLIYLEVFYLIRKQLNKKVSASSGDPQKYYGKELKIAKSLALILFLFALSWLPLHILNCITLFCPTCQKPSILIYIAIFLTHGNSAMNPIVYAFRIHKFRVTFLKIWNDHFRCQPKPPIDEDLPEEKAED
Text: as §1

[1] = test system: collagen-induced arthritis; experiment: Collagen induced arthritis (CIA) in mice; type: in vivo; conditions: DBA/1 mice, 30 mg/kg i.p. once daily
Procedure: Control mice were treated with saline (circles). Data are the mean arthritis paw thickness, assessed using a calliper in the days following primary immunization and boost.
After the end of treatment, the inhibitory effect was maintained for a period of 2-3 days after which signs began to re-emerge.
Treatment of rheumatoid arthritis using Collagen Induced Arthritis as a model Collagen-induced arthritis studies. CIA in DBA/1 mice was induced by injecting DBA/1 mice with bovine type Il collagen (CII) emulsified in CFA1 followed by boosting 21 days later with CII emulsified in incomplete Freund's adjuvant (IFA). […] 30 mg/kg was delivered by i.p. injection once daily, starting following the development of clinical arthritis in treatment experiments. Animals were monitored daily following boost of arthritis, following the emergence of clear signs of disease observed on two consecutive days, animals were allocated randomly to treatment groups. Signs monitored included weight loss, paw thickness, and observed clinical score. Scoring is according to the presence of inflamed joints: 1 point for an inflamed digit, 1 point for a inflamed metatarsus, and 1 point for an inflamed joint above the metatarsus.

[2] = Pharmacokinetics of Compound 1 in mice, oral or intravenous; type: in vivo; conditions: C57BLK6 mice
Procedure: The cellulose formulation was administered to C57BLK6 mice orally. The serum suspension/solution was administered intravenously. […] The results are recorded in FIG. 5.

[3] = test system: experimental autoimmune encephalomyelitis; experiment: Experimental autoimmune encephalomyelitis (EAE) in mice; type: in vivo; conditions: C57B/6 mice, 15 mg/kg i.p. once daily from EAE induction
Procedure: Control mice were treated with PEG/saline (triangles). […] Data are the mean plotted with the standard error of the mean.
EAE is a widely used animal model for multiple sclerosis (MS).
EAE was induced in C57B/6 mice by subcutaneous immunization with 100 ug/mouse myelin oligodendrocyte glycoprotein (MOG) peptide 35-55 emulsified in compete Freund's adjuvant (CFA) containing 2 mg/ml heat-killed mycobacterium tuberculosis H37Ra (Hooke Laboratories). As part of the induction protocol, mice were also injected intraperitoneally on the day of immunization and 48 hours later with 0.1 ml of 4 [mu]g/mL Bordetella pertusis toxin. Severity of EAE was determined daily based on a standard scoring system: 1, tail weakness or paralysis; 2, hind leg weakness; 3, hind limb paralysis; 4, forelimb weakness; and 5, moribund animals or death.

Sequence of rA2A adenosine receptor (P30543 whole entry): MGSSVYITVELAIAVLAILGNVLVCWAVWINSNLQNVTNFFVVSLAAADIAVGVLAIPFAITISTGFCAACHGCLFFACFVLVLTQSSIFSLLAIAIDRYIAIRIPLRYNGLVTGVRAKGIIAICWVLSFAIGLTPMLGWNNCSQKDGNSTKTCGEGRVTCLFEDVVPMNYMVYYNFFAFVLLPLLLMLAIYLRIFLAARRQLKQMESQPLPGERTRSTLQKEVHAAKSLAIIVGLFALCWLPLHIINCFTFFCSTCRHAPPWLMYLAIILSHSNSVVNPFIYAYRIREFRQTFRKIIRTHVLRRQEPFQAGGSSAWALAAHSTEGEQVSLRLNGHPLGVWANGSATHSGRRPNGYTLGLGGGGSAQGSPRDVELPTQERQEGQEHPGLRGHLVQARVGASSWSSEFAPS

CCCn1c(=O)[nH]c2nc(-c3ccc(S(=O)(=O)N4CCN(CCc5ccccc5)CC4)cc3)[nH]c2c1=O [Propyl-/2-(Phenyl)ethyl-]
IC50 (hA2B adenosine receptor): 11 ± 3 nM | Ki (rA2A adenosine receptor): 154 ± 44.9 nM | Ki (hA3 adenosine receptor): < 10000 nM

CCCn1c(=O)[nH]c2nc(-c3ccc(S(=O)(=O)N4CCN(Cc5ccc(C(F)(F)F)cc5)CC4)cc3)[nH]c2c1=O [Compound 2]
IC50 (hA2B adenosine receptor): 2 ± 1 nM | Ki (rA2A adenosine receptor): 1540 ± 271 nM | Ki (rA1 adenosine receptor): 463 ± 122 nM

CCn1c(=O)[nH]c2nc(-c3ccc(S(=O)(=O)N4CCN(c5ccccc5)CC4)cc3)[nH]c2c1=O [Ethyl-/Phenyl-]
IC50 (hA2B adenosine receptor): 4 ± 3 nM | Ki (rA2A adenosine receptor): 514 ± 41 nM | Ki (rA1 adenosine receptor): 142 ± 6 nM | Ki (hA3 adenosine receptor): > 10000 nM

CCCn1c(=O)[nH]c2nc(-c3ccc(S(=O)(=O)N4CCN(Cc5ccc(OC)cc5)CC4)cc3)[nH]c2c1=O [Propyl-/p-Methoxybenzyl-]
IC50 (hA2B adenosine receptor): 16 ± 6 nM | Ki (rA2A adenosine receptor): 1020 ± 561 nM | Ki (rA1 adenosine receptor): 84 ± 19 nM

CCCn1c(=O)[nH]c2nc(-c3ccc(S(=O)(=O)N4CCN(Cc5cccc(C(F)(F)F)c5)CC4)cc3)[nH]c2c1=O [Propyl-/m-Trifluormethylbenzyl-]
IC50 (hA2B adenosine receptor): 4 ± 0.2 nM | Ki (rA2A adenosine receptor): 1700 ± 217 nM | Ki (rA1 adenosine receptor): 273 ± 47 nM

CCCn1c(=O)[nH]c2nc(-c3ccc(S(=O)(=O)N4CCN(c5ccc(Cl)cc5)CC4)cc3)[nH]c2c1=O [Compound 1]
effect on existing inflammation in CIA ([1]; established arthritis): able to reduce an existing inflammation to a normal state | severity of CIA (paw swelling, erythema, joint rigidity; mean visual arthritis score) ([1]; started after development of clinical arthritis): significant reductions in the severity of CIA | IC50 (hA2B adenosine receptor): 1 ± 0.4 nM | Ki (hA3 adenosine receptor): > 10000 nM | detectability in blood by route ([2]; oral or intravenous route): detectable only via injection | oral availability ([2]; oral, 1% methyl cellulose in water, 0.2% Tween 80): not orally available | half-life ([2]; whole blood, iv, i.v. application in mouse serum, read-out: terminal half life): 1 to 2 h | onset of EAE compared to control mice ([3]; 15 mg/kg): delayed onset such that there were no signs of EAE | onset of EAE compared to control mice ([3]; listed as compound 1, 15 mg/kg): a delay in the onset of EAE

CCCn1c(=O)[nH]c2nc(-c3ccc(S(=O)(=O)N4CCN(Cc5cccc(F)c5)CC4)cc3)[nH]c2c1=O [Compound 5]
IC50 (hA2B adenosine receptor): 3 ± 0.2 nM | Ki (rA2A adenosine receptor): 782 ± 236 nM | Ki (rA1 adenosine receptor): 111 ± 43 nM

CCn1c(=O)[nH]c2nc(-c3ccc(S(=O)(=O)N4CCN(Cc5ccc6c(c5)OCO6)CC4)cc3)[nH]c2c1=O [Ethyl-/3,4-(Methylen-dioxy)benzyl-]
IC50 (hA2B adenosine receptor): 5 ± 2 nM | Ki (rA2A adenosine receptor): 332 ± 129 nM | Ki (rA1 adenosine receptor): 54 ± 5 nM | Ki (hA3 adenosine receptor): < 10000 nM

CCn1c(=O)[nH]c2nc(-c3ccc(S(=O)(=O)N4CCN(Cc5ccc(OC)cc5)CC4)cc3)[nH]c2c1=O [Ethyl-/p-Methoxybenzyl-]
IC50 (hA2B adenosine receptor): 5 ± 1 nM | Ki (rA2A adenosine receptor): 630 ± 305 nM | Ki (rA1 adenosine receptor): 129 ± 41 nM | Ki (hA3 adenosine receptor): < 10000 nM

CCCn1c(=O)[nH]c2nc(-c3ccc(S(=O)(=O)N4CCN(Cc5ccccc5)CC4)cc3)[nH]c2c1=O [Propyl-/Benzyl-]
IC50 (hA2B adenosine receptor): 10 ± 2 nM | Ki (rA2A adenosine receptor): 848 ± 433 nM | Ki (rA1 adenosine receptor): 151 ± 38 nM | Ki (hA3 adenosine receptor): > 10000 nM

CCn1c(=O)[nH]c2nc(-c3ccc(S(=O)(=O)N4CCN(Cc5cccc(C(F)(F)F)c5)CC4)cc3)[nH]c2c1=O [Compound 3]
IC50 (hA2B adenosine receptor): 2 ± 1 nM | Ki (rA2A adenosine receptor): 499 ± 129 nM | Ki (rA1 adenosine receptor): 509 ± 155 nM

CCCn1c(=O)[nH]c2nc(-c3ccc(S(=O)(=O)N4CCN(Cc5ccc6c(c5)OCO6)CC4)cc3)[nH]c2c1=O [Propyl-/3,4-(Methylen-dioxy)benzyl-]
IC50 (hA2B adenosine receptor): 24 ± 10 nM | Ki (rA2A adenosine receptor): 590 ± 29 nM | Ki (rA1 adenosine receptor): 79 ± 5 nM | Ki (hA3 adenosine receptor): 4150 nM

CCCn1c(=O)[nH]c2nc(-c3ccc(S(=O)(=O)N4CCN(Cc5cccc(Cl)c5)CC4)cc3)[nH]c2c1=O [Compound 4]
IC50 (hA2B adenosine receptor): 2 ± 0.1 nM | Ki (rA2A adenosine receptor): 799 ± 358 nM | Ki (rA1 adenosine receptor): 178 ± 38 nM

CCCn1c(=O)[nH]c2nc(-c3ccc(S(=O)(=O)N4CCN(Cc5ccc(Cl)cc5)CC4)cc3)[nH]c2c1=O [Propyl-/p-Chlorbenzyl-]
IC50 (hA2B adenosine receptor): 4 ± 1 nM | Ki (rA2A adenosine receptor): 1730 ± 790 nM | Ki (rA1 adenosine receptor): 386 ± 98 nM
